The values below come from patent US5185358A, “3-heteroatom containing urea and thiourea ACAT inhibitors” (Warner-Lambert Co., priority 1991, dated 1993).

Experiment [1] has as its target T1, acyl-CoA:cholesterol acyltransferase (ACAT) (Oryctolagus cuniculus, UniProt G1SFD9).
T1 sequence (G1SFD9 1-524): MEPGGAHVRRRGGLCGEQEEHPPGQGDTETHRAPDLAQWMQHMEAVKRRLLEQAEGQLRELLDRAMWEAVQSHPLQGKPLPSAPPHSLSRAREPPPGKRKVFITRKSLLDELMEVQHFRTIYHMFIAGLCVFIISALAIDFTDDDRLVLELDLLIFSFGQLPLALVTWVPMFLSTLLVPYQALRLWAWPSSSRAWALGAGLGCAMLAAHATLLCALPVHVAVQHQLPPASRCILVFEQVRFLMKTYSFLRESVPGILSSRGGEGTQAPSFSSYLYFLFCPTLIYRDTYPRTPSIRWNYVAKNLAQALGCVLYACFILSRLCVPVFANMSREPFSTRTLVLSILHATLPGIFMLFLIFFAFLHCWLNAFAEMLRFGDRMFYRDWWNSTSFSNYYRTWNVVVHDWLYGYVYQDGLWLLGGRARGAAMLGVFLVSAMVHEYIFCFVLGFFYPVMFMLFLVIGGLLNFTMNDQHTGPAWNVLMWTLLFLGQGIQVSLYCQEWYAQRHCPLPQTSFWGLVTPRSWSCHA
Nature of the experiment: In vitro ACAT inhibition: radiolabeled cholesterol oleate formed from radiolabeled oleic acid in rabbit intestinal microsomes. Type of experiment: biochemical. The conditions noted are these: concentration required to inhibit 50% activity of the enzyme.
Procedure: The ability of representative compounds of the present invention to inhibit ACAT was measured using an in vitro test more fully described by Field, F. J. and Salone, R. G., in Biochemica et Biophysica 712:557-570 (1982). The test assesses the ability of a test compound to inhibit the acylation of cholesterol by oleic acid by measuring the amount of radiolabeled cholesterol oleate formed from radiolabeled oleic acid in a tissue preparation containing rabbit intestinal microsomes.

Experiment [2] is described as follows: In vivo screen designated APCC: blood cholesterol in rats on chow supplemented with peanut oil, cholesterol and cholic acid. The conditions noted are these: cholesterol in blood, male Sprague-Dawley rats, oral, 30 milligrams per kilogram, single dose 4 PM, blood samples 8 AM next day, vs vehicle control (CMC/Tween); for change in vivo at 30 mg/kg: Rattus norvegicus, 16 h, read-out: % Change (mg/dl). An excerpt: In one in vivo screen designated APCC, male Sprague-Dawley rats (200 to 225 g) were randomly divided into treatment groups and dosed orally at 4 PM with either vehicle (CMC/Tween) or suspensions of test compounds in vehicle. The control group received vehicle alone. Immediately after dosing, all animals received ad libitum a chow diet supplemented with peanut oil (5.5%), cholesterol (1.5%) and cholic acid (0.5%). The next day the animals were sacrificed at 8 AM to obtain blood samples for cholesterol analysis using standard procedures. Statistical differences between mean cholesterol values for the same vehicle were determined using analysis of variance followed by Fisher's least significant test. The compounds were administered at 30 milligrams per kilogram of body weight.

In general, IC50 refers to the concentration that inhibits the measured activity by half. A high value points to weaker potency in that assay. For `CCCCCCCCCCCc1nc(NC(=O)Nc2c(C(C)C)cccc2C(C)C)n(C(C)=O)n1` [Example 1, N-[2,6-bis(1-methylethyl)phenyl]-N'-(2-acetyl-5-undecyl-2H-1,2,4-triazol-3-yl)urea], the IC50 in experiment [1] was > 5000 nM. For the same compound, in experiment [2], the change in vivo at 30 mg/kg was -38%.

In the case of `CCCCCCCCCCCc1nc(NC(=O)Nc2c(C(C)C)cccc2C(C)C)n[nH]1` [Example 2, N-[2,6-bis(1-methylethyl)phenyl]-N'-(5-undecyl-1H-1,2,4-triazol-3-yl)urea], the IC50 in experiment [1] is > 5000 nM. Further, in experiment [2], the change in vivo at 30 mg/kg was -31%.

Turning to `CCCCCCCCCCCCc1nc(NC(=O)Nc2c(C(C)C)cccc2C(C)C)n[nH]1` [Example 4, N-[2,6-bis(1-methylethyl)phenyl]-N'(5-dodecyl-1H-1,2,4-triazol-3-yl)urea], the change in vivo at 30 mg/kg in experiment [2] amounted to 12%.

Turning to `CCCCCCCCCCCCCCc1nc(NC(=O)Nc2c(C(C)C)cccc2C(C)C)n[nH]1` [Example 6], the IC50 in experiment [1] was > 5000 nM. Also, the change in vivo at 30 mg/kg in experiment [2] is -1%.

For the compound `CCCCCCCCCCCn1ncnc1NC(=O)Nc1c(C(C)C)cccc1C(C)C` [Example 7, N-[2,6-bis(1-methylethyl)phenyl]-N'-(2-undecyl-2H-1,2,4-triazol-3-yl)urea], 140 nM corresponded to half-maximal inhibition in experiment [1] (IC50). Besides, the change in vivo at 30 mg/kg in experiment [2] is -38%.

`CCCCCCCCCCCn1cnc(NC(=O)Nc2c(C(C)C)cccc2C(C)C)n1` [Example 8, N-[2,6-bis(1-methylethyl)phenyl]-N-(1-undecyl-1,2,4-triazol-3-yl)urea]: the IC50 in experiment [1] came out at 110 nM. Further, in experiment [2], the change in vivo at 30 mg/kg was -39%.

In experiment [1], `CCCCCCCCCCCn1cnnc1NC(=O)Nc1c(C(C)C)cccc1C(C)C` [Example 9, N-[2,6-bis(1-methylethyl)phenyl]-N'(4-undecyl-1,2,4-triazol-3-yl)urea] showed a half-inhibitory concentration (IC50) of 670 nM. In addition, the change in vivo at 30 mg/kg in experiment [2] was -21%.

`CCCCCCCCCCCCn1cnc(NC(=O)Nc2c(C(C)C)cccc2C(C)C)n1` [Example 11, N-[2,6-bis(1-methylethyl)phenyl]-N'-(1-dodecyl-1H-1,2,4-triazol-3-yl)urea]: in experiment [1], the IC50 was 1500 nM. Also, the change in vivo at 30 mg/kg in experiment [2] is -30%.

For `CCCCCCCCCCCCn1cnnc1NC(=O)Nc1c(C(C)C)cccc1C(C)C` [Example 12, N-[2,6-bis(1-methylethyl)phenyl]-N'-(4-dodecyl-4H-1,2,4-triazol-3-yl)urea], the change in vivo at 30 mg/kg in experiment [2] is -28%.

Regarding `CCCCCCCCCCCCSc1nnc(NC(=O)Nc2c(C(C)C)cccc2C(C)C)n1C(C)=O` [Example 13, 4-acetyl-N-[[[2,6-bis(1-methylethyl)phenyl]amino]carbonyl]-5-(dodecylthio)-4H-1,2,4-triazol-3-amine], the IC50 in experiment [1] is 600 nM. For the same compound, in experiment [2], the change in vivo at 30 mg/kg was -41%.

With `CCCCCCCCCCCCCSc1nnc(NC(=O)Nc2c(C(C)C)cccc2C(C)C)n1C(C)=O` [Example 14, 4-Acetyl-N-[[[2,6-bis(1-methylethyl)phenyl]amino]carbonyl]-5-(tridecylthio)-4H-1,2,4-triazol-3-amine], the change in vivo at 30 mg/kg in experiment [2] was -21%.

On to `CCCCCCCCCCCCCSc1nnc(NC(=O)Nc2c(C(C)C)cccc2C(C)C)[nH]1` [Example 15, N-[[[2,6-Bis(1-methylethyl)phenyl]amino]carbonyl]-5-(tridecylthio)-4H-1,2,4-triazol-3-amine], for which, in experiment [2], the change in vivo at 30 mg/kg worked out at 12%.

`CCCCCCCCCCCCC[S+]([O-])c1nc(NC(=O)Nc2c(C(C)C)cccc2C(C)C)n[nH]1` (stereo not shown) [Example 16, N-[2,6-Bis(1-methylethyl)phenyl]-N'-[5-(tridecylsulfinyl)-1H-1,2,4-triazol-3-yl]urea]: the change in vivo at 30 mg/kg in experiment [2] was -6%.

On to `CCCCCCCCCCCCCS(=O)(=O)c1nnc(NC(=O)Nc2c(C(C)C)cccc2C(C)C)[nH]1` [Example 17], for which the change in vivo at 30 mg/kg in experiment [2] is -11%.

`CCCCCCCCCCCc1nnc(NC(=O)Nc2c(C(C)C)cccc2C(C)C)s1` [Example 18, N-[2,6-bis(1-methylethyl)phenyl]-N'-(5-undecyl-1,3,4-thiadiazol-2-yl)urea] displayed an IC50 in experiment [1] of 39 nM. In addition, the change in vivo at 30 mg/kg in experiment [2] was -44%.

Turning to `Cc1nnc(NC(=O)Nc2c(C(C)C)cccc2C(C)C)s1` [Example 19, N-[2,6-bis(1-methylethyl)phenyl]-N'-(5-methyl-1,3,4-thiadiazol-2-yl)urea], the IC50 in experiment [1] is > 5000 nM.

Turning to `CCCCCCCc1nnc(NC(=O)Nc2c(C(C)C)cccc2C(C)C)s1` [Example 20, N-[2,6-bis(1-methylethyl)phenyl]-N'-(5-heptyl-1,3,4-thiadiazol-2-yl)urea], it took 400 nM to reach half-maximal inhibition in experiment [1] (IC50). Moreover, the change in vivo at 30 mg/kg in experiment [2] is -25%.

Take `CCCCCCCCCc1nnc(NC(=O)Nc2c(C(C)C)cccc2C(C)C)s1` [Example 21, N-[2,6-bis(1-methylethyl)phenyl]-N'-(5-nonyl-1,3,4-thiadiazol-2-yl)urea]: the change in vivo at 30 mg/kg in experiment [2] is -45%.

With `CCCCCCCCCCCCCc1nnc(NC(=O)Nc2c(C(C)C)cccc2C(C)C)s1` [Example 22, N-[2,6-bis(1-methylethyl)phenyl]-N'-(5-tridecyl-1,3,4-thiadiazol-2-yl)urea], the change in vivo at 30 mg/kg in experiment [2] is -8%.

With `CCCCCCCCCCCCc1nnc(NC(=O)Nc2c(C(C)C)cccc2C(C)C)s1` [Example 23, N-[2,6-bis(1-methylethyl)phenyl]-N'-(5-dodecyl-1,3,4-thiadiazol-2-yl)urea], in experiment [1], inhibition was half-maximal at 34 nM (IC50). The change in vivo at 30 mg/kg in experiment [2] was -32%.

Consider `CC(C)c1cccc(C(C)C)c1NC(=O)Nc1nc(-c2ccccc2)ns1` [Example 24, N-[2,6-Bis(1-methylethyl)phenyl]-N'-(3-phenyl-1,2,4-thiadiazol-5-yl)urea], for which the IC50 in experiment [1] is > 5000 nM.

`CCCCCCCCCCCCCc1nnc(NC(=O)Nc2c(C(C)C)cccc2C(C)C)o1` [Example 25, N-[2,6-bis(1-methylethyl)phenyl]-N'-(5-tridecyl-1,3,4-oxadiazol-2-yl)urea]: the change in vivo at 30 mg/kg in experiment [2] is -62%.

`CCCCCCCCCCCCCc1nc(NC(=O)Nc2c(C(C)C)cccc2C(C)C)no1` [Example 26, N-[2,6-bis(1-methylethyl)phenyl]-N'-[5-tridecyl-1,2,4-oxadiazol-3-yl]urea] registered an IC50 in experiment [1] of 7 nM.

With `CSc1nnc(NC(=O)Nc2c(C(C)C)cccc2C(C)C)[nH]1` [Example 27], the IC50 in experiment [1] is > 5000 nM.

Compound “N-[2,6-bis(1-methylethyl)phenyl]-N'-(2-dodecyl-1H-1,2,4-triazol-5-yl)urea [Example 10]” came in with an IC50 in experiment [1] of 250 nM. Also, the “% Change (mg/dl)” value in experiment [2] is given as -36%.
